From patent US20250326771A1, “PIPERAZINE DERIVATIVES USEFUL IN HIV THERAPY” (VIIV HEALTHCARE COMPANY, priority 2022, published 2025)
Read-outs that look alike come from different tables or passages of the source.

Legend:
cIAP1-BIR3 = cIAP1-BIR3 (Homo sapiens (Human), UniProt Q13490); assay: BIR binding assay (FRET competition), cIAP1 BIR3; settings: for cIAP1 BIR3 vs BIR2 separation window: fold separation (FS) for cIAP1
Outline: (§1)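 Compounds tested as 15-point, 3-fold series displacing 200 nM AlexaFluor647-labelled SMAC peptide from His-tagged BIR domain (cIAP1-BIR3 50 nM; cIAP1-BIR2 and cIAP2-BIR2 325 nM; XIAP-BIR3 100 nM), pH 7.4, 60 min. Eu-W1024 (2 nM) added 30 min; emission ratio fitted for IC50.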

cIAP1-BIR2 = cIAP1-BIR2 (Homo sapiens (Human), UniProt Q13490); assay: BIR binding assay (FRET competition), cIAP1 BIR2
cIAP1-BIR2, sequence (Q13490 173-257): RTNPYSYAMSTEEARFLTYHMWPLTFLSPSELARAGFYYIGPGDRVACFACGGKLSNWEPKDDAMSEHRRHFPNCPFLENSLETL
Outline: as §1

cIAP2-BIR2 = cIAP2-BIR2 (Homo sapiens (Human), UniProt Q13489); assay: BIR binding assay (FRET competition), cIAP2 BIR2
cIAP2-BIR2, sequence (Q13489 158-242): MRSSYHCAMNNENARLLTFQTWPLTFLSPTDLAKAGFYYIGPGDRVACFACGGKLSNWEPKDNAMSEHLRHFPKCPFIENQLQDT
Outline: as §1

cIAP2-BIR3 = cIAP2-BIR3 (Homo sapiens (Human), UniProt Q13489); assay: BIR binding assay (FRET competition), cIAP2 BIR3; settings: for cIAP2 BIR3 vs BIR2 separation window: fold separation (FS) for cIAP2
cIAP2-BIR3, sequence (Q13489 238-349): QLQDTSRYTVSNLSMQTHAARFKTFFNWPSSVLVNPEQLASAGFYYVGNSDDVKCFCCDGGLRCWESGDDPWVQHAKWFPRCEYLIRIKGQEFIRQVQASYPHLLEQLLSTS

XIAP-BIR2 = XIAP-BIR2 (Homo sapiens (Human), UniProt P98170); assay: BIR binding assay (FRET competition), XIAP BIR2
XIAP-BIR2, sequence (P98170 124-240): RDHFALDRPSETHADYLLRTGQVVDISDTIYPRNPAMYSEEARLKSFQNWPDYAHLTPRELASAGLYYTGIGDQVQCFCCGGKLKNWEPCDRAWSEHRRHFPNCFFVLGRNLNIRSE
Experimental: The BIR domain binding assays are FRET based competition assays that utilize His-tagged versions of each of the BIR2 and BIR3 domains from cIAP1, cIAP2, and XIAP (each domain assayed separately) each at a custom optimal concentration and a probe, 200 nM SMAC/DIABLO peptide AVPIAQKSE labelled with AlexaFluor647 (part #crb 1110326h, Discovery Peptides). The assay is conducted in 50 mM HEPES, […], 1 mM CHAPS, 5% Glycerol, 1 mM DTT, in dI water with a final pH of 7.4 and final volume of 20 uL. Final protein domain concentrations are: 50 nM cIAP1-BIR3 (Part #APT-11-370 Reaction Biology), 100 nM XIAP-BIR3 (Part #APT-11-351 Reaction Biology), 200 nM XIAP-BIR2 (Part #APT-11-470 Reaction Biology), 325 nM cIAP2-BIR2 (Part #APT-11-489 Reaction Biology), 50 nM cIAP2-BIR3 (Part #APT-11-372 Reaction Biology), 325 nM cIAP1-BIR2 (Part #APT-11-487 Reaction Biology). Compounds were plated using a HP Tecan D300 printer in a final total volume of 202 nl and DMSO concentration normalized across the 15-point, 3-fold dilution series. Peptide and probe were prepared at 2× relative to the concentrations above in binding buffer, 10 uL added to the prepared compound plates, and incubated for 60 minutes. LANCE Eu-W1024 (part #AD0401 Perkin Elmer #, vendor) was prepared at 2× concentration in binding buffer for final concentration of 2 nM, 10 uL added to each well, and plates incubated for 30 minutes. Plates were read on an ENVISION multifunction plate reader with […] laser excitation to obtain the 615 nm/665 nm emission ratio as indicative of probe:protein proximity. Data was analyzed using GraphPad PRISM and curves fit using log(inhibitor) vs. response—Variable slope (four […] method to obtain IC50 and pIC50 values.

[1] = test system: Jurkat HIV-luciferase clones; assay: Jurkat latency reversal assay; format: cell-based; settings: Homo sapiens, 48 h; Jurkat latency reversal assay potency; read-out: Jurkat pEC50 (converted)
Outline: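 A 1:1:1 mix of three Jurkat clones (C16, 115, N6) carrying integrated luciferase-expressing HIV proviruses, 5,000 cells/well, was exposed to 3-fold, 14-point compound titrations from 10 μM at 0.5% DMSO for 48 h at 37° C. Steady-Glo luminescence was fitted by four-parameter logistic regression to give EC50 and maximal percent activation relative to vehicle.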

XIAP-BIR3 = XIAP-BIR3 (Homo sapiens (Human), UniProt P98170); assay: BIR binding assay (FRET competition), XIAP BIR3; settings: for XIAP BIR3 vs BIR2 separation window: fold separation (FS) for XIAP
XIAP-BIR3, sequence (P98170 241-356): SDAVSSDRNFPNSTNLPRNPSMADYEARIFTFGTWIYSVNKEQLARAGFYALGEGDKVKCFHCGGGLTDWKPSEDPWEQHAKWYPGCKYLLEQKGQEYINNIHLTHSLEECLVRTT
Outline: as §1

[2] = FRET competition, read-out: XIAP BIR2 (pIC50) (converted)
[3] = FRET competition binding, read-out: XIAP BIR2 (pIC50) (converted)

cIAP1-BIR3, sequence (Q13490 253-363): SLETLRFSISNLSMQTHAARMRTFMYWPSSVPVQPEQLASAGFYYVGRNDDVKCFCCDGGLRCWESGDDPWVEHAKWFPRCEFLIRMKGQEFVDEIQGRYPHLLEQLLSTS

Compound | IC50 (cIAP1-BIR3) [nM] | IC50 (cIAP1-BIR2) [µM] | IC50 (cIAP2-BIR2) [µM] | IC50 (cIAP2-BIR3) [nM] | IC50 (XIAP-BIR2) [µM] | EC50 [1] [nM] | IC50 (XIAP-BIR3) [nM] | cIAP1 BIR3 vs BIR2 separation window (cIAP1-BIR3) | cIAP2 BIR3 (pIC50) (cIAP2-BIR3; FRET competition binding) | cIAP2 BIR3 vs BIR2 separation window (cIAP2-BIR3) | XIAP BIR2 (pIC50) (XIAP-BIR2; FRET competition binding) | XIAP BIR3 vs BIR2 separation window (XIAP-BIR3) | IC50 (XIAP-BIR2; [2]) [µM] | IC50 (XIAP-BIR2; [3]) [µM]
C[C@@H]1CN(CC(=O)N2CC(C)(C)c3[nH]c(=O)c(Cc4ccc(F)cc4)cc32)[C@@H](CN2CCO[C@H](COc3cccc(OC[C@@H]4CN(C[C@H]5CN[C@H](C)CN5CC(=O)N5CC(C)(C)c6[nH]c(=O)c(Cc7ccc(F)cc7)cc65)CCO4)c3F)C2)CN1 [Example 72, 1,1′-(2,2′-((3R,3′R,6R,6′R)-(((2S,2'S)-(((2-fluoro-1,3-phenylene)bis(oxy))bis(methylene))bis(morpholine-2,4-diyl))bis(methylene))bis(3-methylpiperazine-6,1-diyl))bis(acetyl))bis(6-(4-fluorobenzyl)-3,3-dimethyl-1,2,3,4-tetrahydro-5H-pyrrolo[3,2-b]pyridin-5-one)] | 7.94 to 15.8 | 0.0224 to 1 | 1 to 3.16 | 15.8 to 31.6 | 10 to 51.3 | 0.49 to 12.6 | 15.8 to 31.6 | – | – | – | – | – | – | –
C[C@@H]1CN(CC(=O)N2CC(C)(C)c3[nH]c(=O)c(Cc4ccc(F)cc4)cc32)[C@@H](CN2CCC[C@H](NC(=O)Cc3ccc(CC(=O)N[C@H]4CCCN(C[C@H]5CN[C@H](C)CN5CC(=O)N5CC(C)(C)c6[nH]c(=O)c(Cc7ccc(F)cc7)cc65)C4)cc3)C2)CN1 [Example 42, 2,2′-(1,4-phenylene)bis(N-((S)-1-(((2R,5R)-1-(2-(6-(4-fluorobenzyl)-3,3-dimethyl-5-oxo-2,3,4,5-tetrahydro-1H-pyrrolo[3,2-b]pyridin-1-yl)-2-oxoethyl)-5-methylpiperazin-2-yl)methyl)piperidin-3-yl)acetamide)] | 31.6 to 501 | 3.16 to 10 | 3.16 to 10 | – | – | 316 to 3310 | 31.6 to 501 | ++ (1,000>FS>100) | ++ (7.80>pIC50>=7.50) | +++ (10,000>FS>1,000) | + (4.29<pIC50<=5.00) | +++ (10,000>FS>1,000) | – | –
C[C@@H]1CN(CC(=O)N2CC(C)(C)c3[nH]c(=O)c(Cc4ccccc4)cc32)[C@@H](CN2CCO[C@H](C(=O)NCc3ccc(CNC(=O)[C@@H]4CN(C[C@H]5CN[C@H](C)CN5CC(=O)N5CC(C)(C)c6[nH]c(=O)c(Cc7ccccc7)cc65)CCO4)cc3)C2)CN1 [Compound 186, (2S,2′S)-N,N′-(1,4-phenylenebis(methylene)) bis(4-(((2R,5R)-1-(2-(6-benzyl-3,3-dimethyl-5-oxo-2,3,4,5-tetrahydro-1H-pyrrolo[3,2-b]pyridin-1-yl)-2-oxoethyl)-5-methylpiperazin-2-yl)methyl)morpholine-2-carboxamide)] | 7.94 to 15.8 | 0.0224 to 1 | 1 to 3.16 | 1.38 to 7.94 | – | 12.6 to 63.1 | 15.8 to 31.6 | ++ (1,000>FS>100) | – | +++ (10,000>FS>1,000) | – | ++++ (FS>10,000) | 10 to 51.3 | –
C[C@@H]1CN(CC(=O)N2CC(C)(C)c3ncc(Cc4cccnc4)cc32)[C@@H](CN2CCO[C@H](COc3cccc(OC[C@@H]4CN(C[C@H]5CN[C@H](C)CN5CC(=O)N5CC(C)(C)c6ncc(Cc7cccnc7)cc65)CCO4)c3)C2)CN1 [Compound 146] | 1.38 to 7.94 | 10 to 51.3 | 10 to 51.3 | 1.38 to 7.94 | 10 to 51.3 | 316 to 3310 | 31.6 to 501 | ++++ (FS>10,000) | – | ++++ (FS>10,000) | – | ++++ (FS>10,000) | – | –
C[C@@H]1CN(CC(=O)N2CC(C)(C)c3[nH]c(=O)c(Cc4ccc(F)cc4)cc32)[C@@H](CN2CCO[C@H](C(=O)NCCNC(=O)[C@@H]3CN(C[C@H]4CN[C@H](C)CN4CC(=O)N4CC(C)(C)c5[nH]c(=O)c(Cc6ccc(F)cc6)cc54)CCO3)C2)CN1 [Example 128, (2S,2'S)-N,N′-(ethane-1,2-diyl)bis(4-(((2R,5R)-1-(2-(6-(4-fluorobenzyl)-3,3-dimethyl-5-oxo-2,3,4,5-tetrahydro-1H-pyrrolo[3,2-b]pyridin-1-yl)-2-oxoethyl)-5-methylpiperazin-2-yl)methyl)morpholine-2-carboxamide)] | 15.8 to 31.6 | 3.16 to 10 | 3.16 to 10 | 7.94 to 15.8 | – | 316 to 3310 | 15.8 to 31.6 | +++ (10,000>FS>1,000) | – | +++ (10,000>FS>1,000) | – | ++++ (FS>10,000) | – | 10 to 51.3
C[C@@H]1CN(CC(=O)N2CC(C)(C)c3[nH]c(=O)c(Cc4ccc(F)cc4)cc32)[C@@H](CN2CCC(CN(C)C(=O)c3cccc(C(=O)N(C)CC4CCN(C[C@H]5CN[C@H](C)CN5CC(=O)N5CC(C)(C)c6[nH]c(=O)c(Cc7ccc(F)cc7)cc65)CC4)c3)CC2)CN1 [Example 95, N^1,N^3-bis((1-(((2R,5R)-1-(2-(6-(4-fluorobenzyl)-3,3-dimethyl-5-oxo-2,3,4,5-tetrahydro-1H-pyrrolo[3,2-b]pyridin-1-yl)-2-oxoethyl)-5-methylpiperazin-2-yl)methyl)piperidin-4-yl)methyl)-N^1,N^3-dimethylisophthalamide] | 31.6 to 501 | 1 to 3.16 | 1 to 3.16 | 1.38 to 7.94 | – | 63.1 to 316 | 7.94 to 15.8 | ++ (1,000>FS>100) | – | +++ (10,000>FS>1,000) | – | ++++ (FS>10,000) | – | 10 to 51.3
C[C@@H]1CN(CC(=O)N2CC(C)(C)c3[nH]c(=O)c(Cc4ccc(F)cc4F)cc32)[C@@H](CN2CCO[C@H](COc3cccc(OC[C@@H]4CN(C[C@H]5CN[C@H](C)CN5CC(=O)N5CC(C)(C)c6[nH]c(=O)c(Cc7ccc(F)cc7F)cc65)CCO4)c3)C2)CN1 [Compound 190] | 15.8 to 31.6 | 3.16 to 10 | 3.16 to 10 | 15.8 to 31.6 | – | 0.49 to 12.6 | 15.8 to 31.6 | +++ (10,000>FS>1,000) | – | +++ (10,000>FS>1,000) | – | ++++ (FS>10,000) | 10 to 51.3 | –
C[C@@H]1CN(CC(=O)N2CC(C)(C)c3[nH]c(=O)c(Cc4ccc(F)cc4)cc32)[C@@H](CN2CCN(CCc3cn(CCC(=O)N4CCN(C[C@H]5CN[C@H](C)CN5CC(=O)N5CC(C)(C)c6[nH]c(=O)c(Cc7ccc(F)cc7)cc65)[C@H](C)C4)nn3)C[C@H]2C)CN1 [Compound 154] | 7.94 to 15.8 | 1 to 3.16 | 1 to 3.16 | 7.94 to 15.8 | – | 63.1 to 316 | 7.94 to 15.8 | +++ (10,000>FS>1,000) | – | +++ (10,000>FS>1,000) | – | ++++ (FS>10,000) | 10 to 51.3 | –
